The source of these data is patent US20260083851A1 (AVILAR THERAPEUTICS, INC., priority 2022, published 2026).

Positions of bridges follow the written chain, without caps; N, C: chain ends. Non-standard residues stand in square brackets, D forms with d. Residues, ends and D or L forms follow the SMILES beside them. ξ: configuration not given here. Pro(4S-NH2) = N[C@@H]1CN[C@H](C(=O)O)C1; ξPro(4-NH2) = NC1CNC(C(=O)O)C1

For the first experiment, the target named is T1, ASGP receptor (biotinylated ASGPR) (Homo sapiens, UniProt P07306).
T1 construct: biotin (biotinylated)
T1 sequence (P07306 1-291): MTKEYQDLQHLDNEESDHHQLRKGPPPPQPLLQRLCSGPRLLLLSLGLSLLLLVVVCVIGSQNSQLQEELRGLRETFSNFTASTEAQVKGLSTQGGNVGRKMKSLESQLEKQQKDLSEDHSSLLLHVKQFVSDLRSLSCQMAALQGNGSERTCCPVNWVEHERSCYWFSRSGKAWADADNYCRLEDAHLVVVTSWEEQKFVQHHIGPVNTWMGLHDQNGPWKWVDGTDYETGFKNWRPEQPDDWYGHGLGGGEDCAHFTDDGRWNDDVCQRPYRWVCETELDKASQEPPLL
Assay: not given
In kind it is binding. As to conditions: SPR, Biacore 8K, 25° C.; Table 1C; read-out: ASGPR KD. Background: Surface plasmon resonance follows binding to a sensor surface in real time, without labels.
A word on the Kd: it is the concentration at which binding is half-saturated. With `O[C@@H]1[C@H](O)[C@@H](Oc2cccc(C(F)(F)F)n2)CO[C@@H]1CN1CCN(c2cnccn2)CC1` [Compound A248], the Kd was less than 10 µM.

Still in this experiment, the particulars now being: SPR, Biacore 8K, 25° C.; Table 1D; read-out: ASGPR KD.
Take `O[C@@H]1[C@@H](Oc2cccc(C(F)(F)F)n2)CN(c2ccncn2)C[C@@H]1O` [Compound A248]: the Kd was less than 10 µM.

The experiment is the same for the next values; noted with them: SPR, Biacore 8K, 25° C.; Table 1E; read-out: ASGPR KD.
Consider `C[C@H]1O[C@H](COc2cccc(C(F)(F)F)n2)[C@H](O)[C@@H](O)[C@H]1O` [A445], for which the Kd was in the range of 10 to 100 µM.

Consider `C[C@H]1O[C@H](COc2ccncn2)[C@H](Oc2cccc(C(F)(F)F)n2)[C@@H](O)[C@H]1O` [A446], for which the Kd is less than 10 µM.

Regarding `C[C@H]1O[C@H](COc2ncccn2)[C@H](Oc2cccc(C(F)(F)F)n2)[C@@H](O)[C@H]1O` [A447], the Kd is less than 10 µM.

Take `C[C@H]1O[C@H](c2nnc(-c3ccccc3)o2)[C@H](Oc2cccc(C(F)(F)F)n2)[C@@H](O)[C@H]1O` [A448]: the Kd was less than 10 µM.

As to `C[C@H]1O[C@H](COc2cnccn2)[C@H](Oc2cccc(C(F)(F)F)n2)[C@@H](O)[C@H]1O` [A449], the Kd is less than 10 µM.

Turning to `C[C@H]1O[C@H](COc2cccc(C(F)(F)F)n2)[C@H](Oc2cnccn2)[C@@H](O)[C@H]1O` [A450], the Kd is less than 10 µM.

Consider `C[C@H]1O[C@H](c2nc(-c3ccccc3)no2)[C@H](Oc2cccc(C(F)(F)F)n2)[C@@H](O)[C@H]1O` [A451], for which the Kd is less than 10 µM.

With `O=C(O)c1cnc(OC[C@@]23CO[C@@H](O2)[C@H](Nc2cncc(C(F)(F)F)n2)[C@@H](O)[C@H]3O)cn1` [A452], the Kd was less than 10 µM.

Staying with this experiment, now noted: SPR; Table 2; read-out: ASGPR SPR Binding KD.
Take `CC1(C)C(=O)c2ccc(-c3cnc(N4CCN5C(=O)N(CCOCCOCCOCC(=O)NC(COCCC(=O)NCCOCCOCCOCCOC[C@H]6OC[C@H](Nc7cncc(C(F)(F)F)n7)[C@@H](O)[C@H]6O)COCCC(=O)NCCOCCOCCOCCOC[C@H]6OC[C@H](Nc7cncc(C(F)(F)F)n7)[C@@H](O)[C@H]6O)C[C@@H]5C4)nc3)nc2N1Cc1cccnc1C#N` [compound 19]: the Kd is less than 0.1 µM.

Consider `CC1(C)C(=O)c2ccc(-c3cnc(N4CCN5C(=O)N(CCCNC(=O)c6ccc7c(c6)C(F)(F)c6cc(C(=O)NC[C@H]8OC[C@H](Nc9cncc(C(F)(F)F)n9)[C@@H](O)[C@H]8O)ccc6-7)C[C@@H]5C4)nc3)nc2N1Cc1cccnc1C#N` [compound 20], for which the Kd was less than 0.1 µM.

In the case of `O=C(CCOCC(COCCC(=O)NC[C@H]1OC[C@H](Nc2cncc(C(F)(F)F)n2)[C@@H](O)[C@H]1O)NCC(=O)N1CCN(Cc2ccc(-c3c[nH]c4ccncc34)c(OCCc3ccc(-c4cccc5ccncc45)cc3)c2)CC1)NC[C@H]1OC[C@H](Nc2cncc(C(F)(F)F)n2)[C@@H](O)[C@H]1O` [compound 21], the Kd is less than 0.1 µM.

As to `CC1(C)C(=O)c2ccc(-c3cnc(N4CCN5C(=O)N(CCOCCOCCOCC(=O)NC(COCCC(=O)NCCOCCOCCOCCOC[C@H]6OC[C@H](Nc7nccc(C(F)(F)F)n7)[C@@H](O)[C@H]6O)COCCC(=O)NCCOCCOCCOCCOC[C@H]6OC[C@H](Nc7nccc(C(F)(F)F)n7)[C@@H](O)[C@H]6O)C[C@@H]5C4)nc3)nc2N1Cc1cccnc1C#N` [compound 22], the Kd is less than 0.1 µM.

For another experiment, the target named is IgG. The experiment can be described thus: IgG SPR binding. The conditions noted are these: second table, read-out: IgG KD.
With `CC(C)CC1NC(=O)C(Cc2cnc[nH]2)NC(=O)C(Cc2c[nH]c3ccccc23)NC(=O)C(C)NC(=O)C2CSSCC(NC(=O)C(Cc3c[nH]c4ccccc34)NC(=O)C(C(C)C)NC(=O)C(CC(C)C)NC(=O)C(CCC(=O)O)NC(=O)CNC1=O)C(=O)NC(C(C)O)C(=O)N1CCCC1C(=O)N1CC(N)CC1C(=O)NC(C)C(=O)N2` (stereo not drawn) [compound 54] (cyclo(GELVWCTP[ξPro(4-NH2)]ACAWHL); disulfide 6-11; configuration not given here), the Kd is less than 0.1 µM.

Regarding `CC(C)CC1NC(=O)C(Cc2cnc[nH]2)NC(=O)C(Cc2c[nH]c3ccccc23)NC(=O)C(C)NC(=O)C2CSSCC(NC(=O)C(Cc3c[nH]c4ccccc34)NC(=O)C(C(C)C)NC(=O)C(CC(C)C)NC(=O)C(CCC(=O)O)NC(=O)CNC1=O)C(=O)NC(C(C)O)C(=O)N1CCCC1C(=O)N1CC(N)CC1C(=O)NC(CC(N)=O)C(=O)N2` (stereo not drawn) [compound 55] (cyclo(GELVWCTP[ξPro(4-NH2)]NCAWHL); disulfide 6-11; configuration not given here), the Kd is less than 0.1 µM.

Regarding `CC(C)CC1NC(=O)C(Cc2cnc[nH]2)NC(=O)C(Cc2c[nH]c3ccccc23)NC(=O)C(C)NC(=O)C2CSSCC(NC(=O)C(Cc3c[nH]c4ccccc34)NC(=O)C(C(C)C)NC(=O)C(CC(C)C)NC(=O)C(CCC(=O)O)NC(=O)CNC1=O)C(=O)NC(C(C)O)C(=O)N1CCCC1C(=O)N1CC(N)CC1C(=O)NC(CC(=O)O)C(=O)N2` (stereo not drawn) [compound 56], the Kd was less than 0.1 µM.

For the molecule `CC(C)CC1NC(=O)C(Cc2cnc[nH]2)NC(=O)C(Cc2c[nH]c3ccccc23)NC(=O)C(C)NC(=O)C2CSSCC(NC(=O)C(Cc3c[nH]c4ccccc34)NC(=O)C(C(C)C)NC(=O)C(CC(C)C)NC(=O)C(CCC(=O)O)NC(=O)CNC1=O)C(=O)NC(C(C)O)C(=O)N1CCCC1C(=O)N1CC(N)CC1C(=O)NC(CC(=O)O)C(=O)N2` (stereo not drawn) [compound 58], the Kd was less than 0.1 µM.

Regarding `CC(C)CC1NC(=O)C(C)NC(=O)CNC(=O)C(CC(C)C)NC(=O)C(Cc2cnc[nH]2)NC(=O)C(Cc2c[nH]c3ccccc23)NC(=O)C(C)NC(=O)C2CSSCC(NC(=O)C(Cc3c[nH]c4ccccc34)NC(=O)C(C(C)C)NC1=O)C(=O)NC(C(C)O)C(=O)N1CCCC1C(=O)N1CC(N)CC1C(=O)NC(CC(=O)O)C(=O)N2` (stereo not drawn) [compound 59] (cyclo(GALVWCTP[ξPro(4-NH2)]DCAWHL); disulfide 6-11; configuration not given here), the Kd was less than 0.1 µM.

With `CC(C)CC1NC(=O)C(Cc2cnc[nH]2)NC(=O)C(Cc2c[nH]c3ccccc23)NC(=O)C(C)NC(=O)C2CSSCC(NC(=O)C(Cc3c[nH]c4ccccc34)NC(=O)C(C(C)C)NC(=O)C(CC(C)C)NC(=O)C(CCC(N)=O)NC(=O)CNC1=O)C(=O)NC(C(C)O)C(=O)N1CCCC1C(=O)N1CC(N)CC1C(=O)NC(CC(=O)O)C(=O)N2` (stereo not drawn) [compound 60] (cyclo(GQLVWCTP[ξPro(4-NH2)]DCAWHL); disulfide 6-11; configuration not given here), the Kd was less than 0.1 µM.

On to `CC(C)CC1NC(=O)C(Cc2cnc[nH]2)NC(=O)C(Cc2c[nH]c3ccccc23)NC(=O)C(C)NC(=O)C2CSSCC(NC(=O)C(Cc3c[nH]c4cc(Cl)ccc34)NC(=O)C(C(C)C)NC(=O)C(CC(C)C)NC(=O)C(CCC(=O)O)NC(=O)CNC1=O)C(=O)NC(C(C)O)C(=O)N1CCCC1C(=O)N1CC(N)CC1C(=O)NC(CC(=O)O)C(=O)N2` (stereo not drawn) [compound 61], for which the Kd was less than 0.1 µM.

Regarding `CC(C)CC1NC(=O)C(Cc2cnc[nH]2)NC(=O)C(Cc2c[nH]c3ccccc23)NC(=O)C(C)NC(=O)C2CSSCC(NC(=O)C(Cc3c[nH]c4ccc(Cl)cc34)NC(=O)C(C(C)C)NC(=O)C(CC(C)C)NC(=O)C(CCC(=O)O)NC(=O)CNC1=O)C(=O)NC(C(C)O)C(=O)N1CCCC1C(=O)N1CC(N)CC1C(=O)NC(CC(=O)O)C(=O)N2` (stereo not drawn) [compound 62], the Kd is less than 0.1 µM.

As for `CC(C)CC1NC(=O)C(Cc2cnc[nH]2)NC(=O)C(Cc2c[nH]c3ccccc23)NC(=O)C(C)NC(=O)C2CSSCC(NC(=O)C(Cc3c[nH]c4ccccc34)NC(=O)C(C(C)C)NC(=O)C(CC(C)C)NC(=O)C(CCC(=O)O)NC(=O)CNC1=O)C(=O)NC(C(C)O)C(=O)N1CCCC1C(=O)N1CC(N)CC1C(=O)NC(CC(=O)O)C(=O)N2` (stereo not drawn) [compound 63], the Kd was less than 0.1 µM.

In the case of `CC(C)C[C@@H]1NC(=O)[C@H](Cc2cnc[nH]2)NC(=O)[C@H](Cc2c[nH]c3ccccc23)NC(=O)[C@H](C)NC(=O)[C@@H]2CSSC[C@H](NC(=O)[C@H](Cc3c[nH]c4ccccc34)NC(=O)[C@H](C(C)C)NC(=O)[C@H](CC(C)C)NC(=O)[C@H](CCC(=O)N(C)C)NC(=O)CNC1=O)C(=O)N[C@@H]([C@@H](C)O)C(=O)N1CCC[C@@H]1C(=O)N1C[C@@H](N)C[C@H]1C(=O)N[C@@H](CC(=O)O)C(=O)N2` [compound 65], the equilibrium dissociation constant (Kd) is less than 0.1 µM.

Regarding `CC(C)CC1NC(=O)C(Cc2cnc[nH]2)NC(=O)C(Cc2c[nH]c3ccccc23)NC(=O)C(C)NC(=O)C2CSSCC(NC(=O)C(Cc3c[nH]c4ccccc34)NC(=O)C(C(C)C)NC(=O)C(CC(C)C)NC(=O)C(CCC(=O)O)NC(=O)CNC1=O)C(=O)NC(C(C)O)C(=O)N1CCCC1C(=O)N1CC(N)CC1C(=O)NC(CC(=O)O)C(=O)N2` (stereo not drawn) [compound 66], the Kd is less than 0.1 µM.

In the case of `CC(C)C[C@@H]1NC(=O)[C@H](C)NC(=O)CNC(=O)[C@H](CC(C)C)NC(=O)[C@H](Cc2cnc[nH]2)NC(=O)[C@H](Cc2c[nH]c3ccccc23)NC(=O)[C@H](C)NC(=O)[C@@H]2CSSC[C@H](NC(=O)[C@H](Cc3c[nH]c4ccccc34)NC(=O)[C@H](C(C)C)NC1=O)C(=O)N[C@@H]([C@@H](C)O)C(=O)N1CCC[C@@H]1C(=O)N1C[C@@H](N)C[C@H]1C(=O)N[C@@H](C)C(=O)N2` [compound 67] (cyclo(ACAWHLGALVWCT[dP][Pro(4S-NH2)]); disulfide 2-12), the Kd is less than 0.1 µM.

With `CC(C)C[C@@H]1NC(=O)[C@H](Cc2cnc[nH]2)NC(=O)[C@H](Cc2c[nH]c3ccccc23)NC(=O)[C@H](C)NC(=O)[C@@H]2CSSC[C@H](NC(=O)[C@H](Cc3c[nH]c4ccccc34)NC(=O)[C@H](C(C)C)NC(=O)[C@H](CC(C)C)NC(=O)[C@H](CCC(=O)N(C)C)NC(=O)CNC1=O)C(=O)N[C@@H]([C@@H](C)O)C(=O)N1CCC[C@@H]1C(=O)N1C[C@@H](N)C[C@H]1C(=O)N[C@@H](C)C(=O)N2` [compound 68], the Kd was less than 0.1 µM.
